In patent publication US9078899B2, “Pyrazolyl-based carboxamides II” (Grünenthal GmbH, priority 2013, dated 2015):

Molecular target: T1, CRAC channel (Homo sapiens, UniProt Q96D31)
T1 construct: host or cells: HEK293
Experiment: HEK Calcium Influx Assay (FLIPR)
Assay type: cell-based
Settings: 10 μM; endogenous SOC in HEK293 cells, thapsigargin store depletion, Ca2+ signal 9.5-10 min post-administration; read-out: % inhib.[@ 10 μM] FLIPR
Description: The effect of compounds of the invention on intracellular [Ca^2+] was tested in the HEK293 cell line (ECACC).
HEK293 cells were cultured in DMEM/F12/Glutamax (Gibco) containing 10% FCS (Gibco), and maintained at 37° C., 5% CO2. Cell were split twice a week [3*10^6 (Mon-Thu) and 1*10^6 (Thu-Mon) cells/50 ml medium in T-175 ZK culture flasks, respectively]. Twenty four hours pre-experiment, cells were seeded on 96 well plates (Poly-D-Lysine 96well Black/Clear Plate, BD Biocoat REF 356640) at a density of 40,000 cells/well in DMEM/F12 (Gibco) containing 10% FCS (Gibco), and maintained at 37° C., 5% CO2.
Prior to store-depletion, cell culture medium was removed and cells were loaded with the a Calcium-sensitive fluorescent dye comprised within the Calcium-4-assay kit (Molecular Devices) in nominally Ca^2+-free HBS buffer (140 mM NaCl, 4 mM KCl, 0.2 mM MgCl2, 11 mM D-glucose, and 10 mM HEPES, pH 7.4) according to manufacturer's instruction for 60 min at 37° C., 5% CO2.
Passive depletion of intracellular Ca^2+-stores was then triggered by employing the SERCA inhibitor thapsigargin (2 μM final) for 10 min in the dark (RT). To prevent immediate Ca^2+-entry via the activated Store-operated channels (SOCs), cells were maintained in Ca^2+-free HBS buffer comprising 100 μM EGTA during store-depletion.
Intracellular changes in [Ca^2+] were subsequently monitored with the FLIPR device (Molecular Devices). In brief, baseline imaging post-store depletion was allowed for 1 min before adjusting the extracellular buffer to 3 mM CaCl2. Increases in intracellular [Ca^2+] due to pre-activated SOC channels were monitored for 15 min until intracellular Ca^2+ levels had declined into a steady-state. Finally, compounds were administered and Ca^2+ signals were recorded for additional 10 min.
Inhibition of endogenous SOC in HEK293 cells was quantified employing the average Ca^2+ signal measured from 9.5-10 min post-administration. Zero percent inhibition (MAX) was defined as the Ca^2+ signal recorded from wells to which DMSO-only had been added instead of compound. Hundred percent inhibition (MIN) was defined as the signal obtained from wells in which cells haven't been treated with TG prior to Ca^2+ addition and to which DMSO-only had been added instead of compound. For routine IC50 determinations of compounds, 8 concentrations of a serial dilution (1:3.16) were tested, starting off from 10 μM. Reliable IC50's could consequently be determined only, if they were at least sub 2.5-3 μM.

T1 sequence (Q96D31 whole entry): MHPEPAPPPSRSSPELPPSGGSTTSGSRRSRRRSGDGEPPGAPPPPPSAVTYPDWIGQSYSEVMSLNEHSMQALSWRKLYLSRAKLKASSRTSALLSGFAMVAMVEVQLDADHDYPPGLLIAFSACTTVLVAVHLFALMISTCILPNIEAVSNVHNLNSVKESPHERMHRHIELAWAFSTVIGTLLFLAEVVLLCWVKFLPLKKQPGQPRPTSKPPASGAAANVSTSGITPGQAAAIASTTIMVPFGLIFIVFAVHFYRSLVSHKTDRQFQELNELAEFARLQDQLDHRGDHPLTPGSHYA

Cn1nc(C(=O)Nc2c(F)cccc2F)cc1-c1cc(F)ccc1F [Example 5, 5-(2,5-Difluoro-phenyl)-N-(2,6-difluoro-phenyl)-1-methyl-1H-pyrazole-3-carboxylic acid amide]
inhibition at 10 µM: 50 to 70%

Cn1nc(C(=O)Nc2c(F)cccc2F)cc1-c1cc(C(F)(F)F)ccc1F [Example 6, N-(2,6-Difluoro-phenyl)-5-[2-fluoro-5-(trifluoromethyl)-phenyl]-1-methyl-1H-pyrazole-3-carboxylic acid amide]
inhibition at 10 µM: > 70%

Cn1nc(C(=O)Nc2ccncc2F)cc1-c1ccc(OC(F)(F)F)cc1Cl [Example 11, 5-[2-Chloro-4-(trifluoromethyloxy)-phenyl]-N-(3-fluoro-pyridin-4-yl)-1-methyl-1H-pyrazole-3-carboxylic acid amide]
inhibition at 10 µM: 50 to 70%

COc1ccc(OC)c(-c2cc(C(=O)Nc3ccc(S(C)(=O)=O)cc3F)nn2C)c1 [Example 13, 5-(2,5-Dimethoxyphenyl)-N-(2-fluoro-4-methylsulfonyl-phenyl)-1-methyl-1H-pyrazole-3-carboxylic acid amide]
inhibition at 10 µM: 50 to 70%

COc1ccc(OC)c(-c2cc(C(=O)Nc3ccncc3C(F)(F)F)nn2C)c1 [Example 14, 5-(2,5-Dimethoxyphenyl)-1-methyl-N-[3-(trifluoromethyl)-pyridin-4-yl]-1H-pyrazole-3-carboxylic acid amide]
inhibition at 10 µM: 50 to 70%

COc1ccc(OC)c(-c2cc(C(=O)Nc3ccncc3F)nn2C)c1 [Example 19, 5-(2,5-Dimethoxyphenyl)-N-(3-fluoro-pyridin-4-yl)-1-methyl-1H-pyrazole-3-carboxylic acid amide]
inhibition at 10 µM: > 70%

COc1ccc(Cl)cc1-c1cc(C(=O)Nc2ccncc2F)nn1C [Example 22, 5-(5-Chloro-2-methoxy-phenyl)-N-(3-fluoro-pyridin-4-yl)-1-methyl-1H-pyrazole-3-carboxylic acid amide]
inhibition at 10 µM: 50 to 70%

Cc1ccc(Cl)cc1-c1cc(C(=O)Nc2ccncc2F)nn1C [Example 23, 5-(5-Chloro-2-methyl-phenyl)-N-(3-fluoro-pyridin-4-yl)-1-methyl-1H-pyrazole-3-carboxylic acid amide]
inhibition at 10 µM: 50 to 70%

COc1ccc(-c2cc(C(=O)Nc3ccncc3F)nn2C)c(C)c1 [Example 24, N-(3-Fluoro-pyridin-4-yl)-5-(4-methoxy-2-methyl-phenyl)-1-methyl-1H-pyrazole-3-carboxylic acid amide]
inhibition at 10 µM: > 70%

Cc1cnccc1NC(=O)c1cc(-c2cc(Cl)ccc2C)n(C)n1 [Example 28, 5-(5-Chloro-2-methyl-phenyl)-1-methyl-N-(3-methyl-pyridin-4-yl)-1H-pyrazole-3-carboxylic acid amide]
inhibition at 10 µM: 50 to 70%

Cc1ccc(C(F)(F)F)cc1-c1cc(C(=O)Nc2ccncc2F)nn1C [Example 29, N-(3-Fluoro-pyridin-4-yl)-1-methyl-5-[2-methyl-5-(trifluoromethyl)-phenyl]-1H-pyrazole-3-carboxylic acid amide]
inhibition at 10 µM: 50 to 70%

COc1ccc(OC)c(-c2cc(C(=O)Nc3ccccc3F)nn2C)c1 [Example 33, 5-(2,5-Dimethoxyphenyl)-N-(2-fluorophenyl)-1-methyl-1H-pyrazole-3-carboxylic acid amide]
inhibition at 10 µM: > 70%

CCn1nc(C(=O)Nc2c(F)cccc2F)cc1-c1cc(OC)ccc1OC [Example 37, N-(2,6-Difluoro-phenyl)-5-(2,5-dimethoxyphenyl)-1-ethyl-1H-pyrazole-3-carboxylic acid amide]
inhibition at 10 µM: 50 to 70%

Cn1nc(C(=O)Nc2c(F)cccc2F)cc1-c1cc(C(F)(F)F)ccc1C#N [Example 38, 5-[2-Cyano-5-(trifluoromethyl)-phenyl]-N-(2,6-difluoro-phenyl)-1-methyl-1H-pyrazole-3-carboxylic acid amide]
inhibition at 10 µM: 50 to 70%

COc1ccc(OC)c(-c2cc(C(=O)Nc3c(F)cccc3F)n[nH]2)c1 [Example 41, N-(2,6-Difluoro-phenyl)-5-(2,5-dimethoxyphenyl)-1H-pyrazole-3-carboxylic acid amide]
inhibition at 10 µM: > 70%
